Patent US20250360109A1, “COMPOSITIONS AND METHODS FOR TREATING DEPRESSION IN FEMALES” (priority 2022, published 2025)

Tests used:
[1] = system: adult subjects with major depressive disorder (MDD); assay: Phase 2 placebo-controlled study in MDD, Montgomery-Asberg Depression Rating Scale (MADRS) total score; type: in vivo, human
Description: (§1) A Phase 2, multicenter, double-blind, randomized, placebo-controlled study of the safety and efficacy of SP-624 in the treatment of adult subjects with major depressive disorder (MDD) as defined by the Diagnostic and Statistical Manual of Mental Disorders, Fifth Edition (DSM-5) was carried out. Following the successful completion of a Screening Phase, subjects were randomized to one of two treatment groups in a 1:1 ratio and received Compound 1 (SP-624) or placebo over a treatment period of four weeks (Treatment Group #1: SP-624 20 mg/day; Treatment Group #2: Placebo).
(§2) Prior to initiating the 4-week treatment period, subjects completed a Screening/Baseline period of up to 28 days, during which time all screening assessments were performed, and any current depression medications discontinued. All screening assessments were completed before discontinuing any current depression medications. Subjects returned for a Baseline Visit to complete efficacy and safety assessments. During the treatment period, subjects returned to the investigative site to complete efficacy and safety assessments at the end of Weeks 1, 2, 3, and 4. After the final dose of study drug, subjects completed a follow-up period of two weeks and returned at the end of Weeks 5 and 6. Subjects may be treated with anti-depressant medications according to physician recommendations after completion of the Week 5 Visit.
(§3) Each dose of Compound 1 was supplied as two capsules, each containing 10 mg of active pharmaceutical ingredient (API). Matching placebo capsules identical in shape and color to the active capsules were used.
The primary efficacy endpoint was Change from Baseline to Week 4 in Montgomery-Asberg Depression Rating Scale (MADRS) total score.
(§4) Secondary efficacy endpoints included: • Change from Baseline to Weeks 1, 2, and 3 in MADRS total score, • Change from Baseline to Weeks 1, 2, 3, and 4 in Clinical Global Impression-Severity (CGI-S) total score, • Change from Baseline to Week 5 and change from Week 4 to Week 5 in MADRS total score and CGI-S total score, • Change from Baseline to Week 2 and Week 4 in the 17-item Hamilton Depression Rating Scale (HAM D-17) total score, • Change from Baseline to Week 2 and Week 4 in the Sheehan Disability Scale (SDS), • Change from Baseline to Week 2 and Week 4 in the Quick Inventory of Depressive Symptomology-Self Report (QIDS-SR), and • Change from Baseline to Week 2 and Week 4 in the Quality of Life Enjoyment and Satisfaction Questionnaire-Short Form (Q-LES-Q-SF).

[2] = system: adult subjects with major depressive disorder (MDD); assay: Phase 2 placebo-controlled study in MDD, 17-item Hamilton Depression Rating Scale (HAM D-17) total score; type: in vivo, human; settings: mITT; for Change from Baseline, HAM-D-17 Total at Week 2, LSM Difference (95% CI) / Change from Baseline, HAM-D-17 Total at Week 4, LSM Difference (95% CI): 20 mg/day vs Placebo; for Change from Baseline, HAM-D-17 Total at Week 2, Mean (SD) / Change from Baseline, HAM-D-17 Total at Week 2, Median / Change from Baseline, HAM-D-17 Total at Week 4, Mean (SD) / Change from Baseline, HAM-D-17 Total at Week 4, Median / HAM-D-17 Total at Week 2, Mean (SD) / HAM-D-17 Total at Week 2, Median / HAM-D-17 Total at Week 4, Mean (SD) / HAM-D-17 Total at Week 4, Median: 20 mg/day
Description: as §1, §2, §3, §4

[3] = Male, 20 mg/day vs Placebo, mITT, MMRM

With `COC1=CC(=O)C[C@@H](C)[C@]12Oc1c(Cl)c(-c3nnc(C)o3)cc(OC)c1C2=O` [SP-624, (2S,6′R)-7-Chloro-2′,4-dimethoxy-6′-methyl-6-(5-methyl-1,3,4-oxadiazol-2-yl)-3H-spiro[1-benzofuran-2,1′-cyclohex [2]ene]-3,4′-dione] the “Change from Baseline, MADRS Total at Week 4, Median” value ([1]; Female, 20 mg/day, mITT) was −13, the “MADRS Total at Week 1, Mean (SD)” value ([1]; Female, 20 mg/day, mITT) was 26.7 (8.10) and the “MADRS Total at Week 1, Median” value ([1]; Female, 20 mg/day, mITT) was 27. The “MADRS Total at Week 2, Mean (SD)” value ([1]; Female, 20 mg/day, mITT) was 23.1 (8.76), the “MADRS Total at Week 2, Median” value ([1]; Female, 20 mg/day, mITT) was 25 and the “MADRS Total at Week 3, Mean (SD)” value ([1]; Female, 20 mg/day, mITT) was 20.8 (10.11). For the same compound, the “MADRS Total at Week 3, Median” value ([1]; Female, 20 mg/day, mITT) was 21, the “MADRS Total at Week 4, Mean (SD)” value ([1]; Female, 20 mg/day, mITT) was 19.8 (10.75) and the “MADRS Total at Week 4, Median” value ([1]; Female, 20 mg/day, mITT) was 21. The “Change from Baseline, MADRS Total at Week 1, LSM Difference (95% CI)” value [1, 3] was 0.7 (−2.7, 4.1), the “Change from Baseline, MADRS Total at Week 2, LSM Difference (95% CI)” value [1, 3] was −0.7 (−4.1, 2.8) and the “Change from Baseline, MADRS Total at Week 3, LSM Difference (95% CI)” value [1, 3] was 2.2 (−1.3, 5.8). For the same compound, the “Change from Baseline, MADRS Total at Week 4, LSM Difference (95% CI)” value [1, 3] was 2.7 (−0.8, 6.3), the “Change from Baseline, MADRS Total at Week 1, Mean (SD)” value ([1]; Male, 20 mg/day, mITT) was −6.6 (7.04) and the “Change from Baseline, MADRS Total at Week 1, Median” value ([1]; Male, 20 mg/day, mITT) was −5. The “Change from Baseline, MADRS Total at Week 2, Mean (SD)” value ([1]; Male, 20 mg/day, mITT) was −9.8 (8.94), the “Change from Baseline, MADRS Total at Week 2, Median” value ([1]; Male, 20 mg/day, mITT) was −9 and the “Change from Baseline, MADRS Total at Week 3, Mean (SD)” value ([1]; Male, 20 mg/day, mITT) was −10.6 (9.28). For the same compound, the “Change from Baseline, MADRS Total at Week 3, Median” value ([1]; Male, 20 mg/day, mITT) was −9, the “Change from Baseline, MADRS Total at Week 4, Mean (SD)” value ([1]; Male, 20 mg/day, mITT) was −11.4 (9.44) and the “Change from Baseline, MADRS Total at Week 4, Median” value ([1]; Male, 20 mg/day, mITT) was −10. The “MADRS Total at Week 1, Mean (SD)” value ([1]; Male, 20 mg/day, mITT) was 25.5 (7.31), the “MADRS Total at Week 1, Median” value ([1]; Male, 20 mg/day, mITT) was 26 and the “MADRS Total at Week 2, Mean (SD)” value ([1]; Male, 20 mg/day, mITT) was 22.6 (9.35). The “MADRS Total at Week 2, Median” value ([1]; Male, 20 mg/day, mITT) was 24, the “MADRS Total at Week 3, Mean (SD)” value ([1]; Male, 20 mg/day, mITT) was 21.4 (9.60) and the “MADRS Total at Week 3, Median” value ([1]; Male, 20 mg/day, mITT) was 22. For the same compound, the “MADRS Total at Week 4, Mean (SD)” value ([1]; Male, 20 mg/day, mITT) was 20.8 (9.61), the “MADRS Total at Week 4, Median” value ([1]; Male, 20 mg/day, mITT) was 21 and the “lowering the MADRS score by an average of” value ([1]; females, therapeutically effective) was 3.9 points. For the same compound, the “effect on MADRS score” value ([1]; males) was “no effect”, the “Change from Baseline, HAM-D-17 Total at Week 2, LSM Difference (95% CI)” value ([2]; Female) was −0.9 (−2.6, 0.8) and the “Change from Baseline, HAM-D-17 Total at Week 4, LSM Difference (95% CI)” value ([2]; Female) was −2.3 (−4.2, −0.4). For the same compound, the “Change from Baseline, HAM-D-17 Total at Week 2, Mean (SD)” value ([2]; Female) was −6.4 (5.99), the “Change from Baseline, HAM-D-17 Total at Week 2, Median” value ([2]; Female) was −5 and the “Change from Baseline, HAM-D-17 Total at Week 4, Mean (SD)” value ([2]; Female) was −8.8 (6.82). For the same compound, the “Change from Baseline, HAM-D-17 Total at Week 4, Median” value ([2]; Female) was −8, the “HAM-D-17 Total at Week 2, Mean (SD)” value ([2]; Female) was 16.6 (6.25) and the “HAM-D-17 Total at Week 2, Median” value ([2]; Female) was 17. The “HAM-D-17 Total at Week 4, Mean (SD)” value ([2]; Female) was 14.6 (7.03), the “HAM-D-17 Total at Week 4, Median” value ([2]; Female) was 15 and the “Change from Baseline, HAM-D-17 Total at Week 2, LSM Difference (95% CI)” value ([2]; Male) was 0.1 (−2.6, 2.8). For the same compound, the “Change from Baseline, HAM-D-17 Total at Week 4, LSM Difference (95% CI)” value ([2]; Male) was 1.4 (−1.4, 4.3), the “Change from Baseline, HAM-D-17 Total at Week 2, Mean (SD)” value ([2]; Male) was −5.7 (5.90) and the “Change from Baseline, HAM-D-17 Total at Week 2, Median” value ([2]; Male) was −5. For the same compound, the “Change from Baseline, HAM-D-17 Total at Week 4, Mean (SD)” value ([2]; Male) was −7.8 (6.57), the “Change from Baseline, HAM-D-17 Total at Week 4, Median” value ([2]; Male) was −7 and the “HAM-D-17 Total at Week 2, Mean (SD)” value ([2]; Male) was 16.2 (6.58). The “HAM-D-17 Total at Week 2, Median” value ([2]; Male) was 17, the “HAM-D-17 Total at Week 4, Mean (SD)” value ([2]; Male) was 14.3 (6.96) and the “HAM-D-17 Total at Week 4, Median” value ([2]; Male) was 15.
